Measured values from patent US20250213571A1, “TYK2 INHIBITORS AND USES THEREOF” (Alumis Inc., priority 2022, published 2025).
Like-named read-outs stand apart in the source and are kept apart here.

How the values were obtained:
IFNa, PBMCs, p-STAT3 = assay: IFNa induced p-STAT3 in PBMCs; format: cell-based; settings: Homo sapiens, PBMC, IFNa stimulated PBMCs
JAK3 JH1 = JAK3 JH1 (Homo sapiens (Human), UniProt P52333); assay: JAK3 JH1 binding (Kd, Table 2); settings: JH1 domain
JAK1 JH1 = JAK1 JH1 (Homo sapiens (Human), UniProt P23458); assay: JAK1 JH1 binding (Kd, Table 2); settings: JH1 domain
[1] = system: INFα Induced pSTAT5 in Human PBMC; assay: INFα induced pSTAT5 in human PBMC; format: cell-based; settings: 0.25 h, human PBMCs, INFα 5000 units/ml 15 minutes, p-STAT5, read-out: IFNa, PBMCs, p-STAT5 (IC50)
Experimental: Fresh Human PBMCs were resuspended in RPMI 1640 medium with 10% FBS. Cells were seeded in a round bottom 96-well plate at the concentration of 200,000 cells/well. A 10-point dilution series of test compound (top dose 10 uM, 1:5 dilution) was added to the well using the liquid dispenser (Tecan D300e) and incubated for 1 hour at 37 C. Then human INFα recombinant protein (R&D Systems) was added to the well at the final concentration of 5000 units/ml and incubated for 15 minutes at 37 C. Cell lysates were prepared and analyzed by Phospho STAT5 (Tyr693) Kit (Meso Scale Discovery) following manufacturer's protocol.
For calculation of the inhibition rate, the relative pSTAT5 signal of each well=pSTAT5 signal of each well−the average pSTAT5 signal of baseline.
The inhibition %=(the average pSTAT5 signal of INFα treatment wells−the relative of pSTAT5 signal in each compound containing well)/the average pSTAT5 signal of INFα treatment wells*100%
The curve was plotted as the inhibition % (y-axis) vs. compounds concentration (x-axis) and is fitted with log(inhibitor) vs. normalized response—Variable slope by GraphPad Prism7.0.

JAK1 JH2 = JAK1 JH2 (Homo sapiens (Human), UniProt P23458); assay: JAK1 JH2 binding (Kd, Table 2); settings: JH2 domain
JAK2 JH2 = JAK2 JH2 (Homo sapiens (Human), UniProt O60674); assay: JAK2 JH2 binding (Kd, Table 2); settings: JH2 domain
[2] = biological target: human TYK2 (JH2domain-pseudokinase) (Homo sapiens (Human), UniProt P29597); assay: TYK2 JH2 domain binding assay (KINOMEscan)
Experimental: Binding constants for the compounds described herein against the JH2 domain were determined by the following protocol for a KINOMEscan® assay (DiscoveRx). A fusion protein of a partial length construct of human TYK2 (JH2domain-pseudokinase) (amino acids G556 to D888 based on reference sequence NP_003322.3) and the DNA binding domain of NFkB was expressed in transiently transfected HEK293 cells. From these HEK 293 cells, extracts were prepared in M-PER extraction buffer (Pierce) in the presence of Protease Inhibitor Cocktail Complete (Roche) and Phosphatase Inhibitor Cocktail Set II (Merck) per manufacturers' instructions. The TYK2 (JH2domain-pseudokinase) fusion protein was labeled with a chimeric double-stranded DNA tag containing the NFkB binding site fused to an amplicon for qPCR readout, which was added directly to the expression extract (the final concentration of DNA-tag in the binding reaction is 0.1 nM).
Streptavidin-coated magnetic beads (Dynal M280) were treated with a biotinylated small molecule ligand for 30 minutes at room temperature to generate affinity resins the binding assays. The liganded beads were blocked with excess biotin and washed with blocking buffer (SeaBlock (Pierce), 1% BSA, 0.05% Tween 20, 1 mM DTT) to remove unbound ligand and to reduce nonspecific binding.
The binding reaction was assembled by combining 16 μl of DNA-tagged kinase extract, 3.8 μl liganded affinity beads, and 0.18 μl test compound (PBS/0.05% Tween 20/10 mM DTT/0.1% BSA/2 μg/ml sonicated salmon sperm DNA)]. Extracts were used directly in binding assays without any enzyme purification steps at a ≥10,000-fold overall stock dilution (final DNA-tagged enzyme concentration <0.1 nM). Extracts were loaded with DNA-tag and diluted into the binding reaction in a two-step process. First extracts were diluted 1:100 in 1×binding buffer (PBS/0.05% Tween 20/10 mM DTT/0.1% BSA/2 […] sonicated salmon sperm DNA) containing 10 nM DNA-tag. This dilution was allowed to equilibrate at room temperature for 15 minutes and then subsequently diluted 1:100 in 1× binding buffer. Test compounds were prepared as 111× stocks in 100% DMSO. Kds were determined using an 11-point 3-fold compound dilution series with three DMSO control points. All compounds for Kd measurements were distributed by acoustic transfer (non-contact dispensing) in 100% DMSO. The compounds were then diluted directly into the assays such that the final concentration of DMSO was 0.9%. All reactions were performed in polypropylene 384-well plates. Each was a final volume of 0.02 mL. Assays were incubated with shaking for 1 hour at room temperature. Then the beads were pelleted and washed with wash buffer (1×PBS, 0.05% Tween 20) to remove displaced kinase and test compound. The washed based were resuspended in elution buffer (1 λPBS, 0.05% Tween […] non-biotinylated affinity ligand) and incubated at room temperature with shaking for 30 minutes. The kinase concentration in the eluates was measured by qPCR. qPCR reactions were assembled by adding 2.5 μL of kinase eluate to 7.5 μL of qPCR master mix containing […] amplicon primers and 0.15 μM amplicon probe. The qPCR protocol consisted of a 10 minute hot start at 95° C., followed by 35 cycles of 95° C. for 15 seconds, 60° C. for 1 minute.
Test compounds were prepared as 111× stocks in 100% DMSO. Kds were determined using an 11-point 3-fold compound dilution series with three DMSO control points. All compounds for Kd measurements were distributed by acoustic transfer (non-contact dispensing) in 100% DMSO. The compounds were then diluted directly into the assays such that the final concentration of DMSO was 0.9%. The Kds were determined using a compound top concentration of 30,000 nM. Kd measurements were performed in duplicate.
Binding constants (Kds) were calculated with a standard dose-response curve using the Hill equation: […]
The Hill Slope was set to −1. […]

JAK2 JH1 = JAK2 JH1 (Homo sapiens (Human), UniProt O60674); assay: JAK2 JH1 binding (Kd, Table 2); settings: JH1 domain
TYK2 JH1 = TYK2 JH1 (Homo sapiens (Human), UniProt P29597); assay: TYK2 JH1 binding (Kd, Table 2); settings: JH1 domain
[3] = cn_pd bond, 14-membered ring, Pd2(dba)3/BINAP/Cs2CO3
[4] = cn_pd bond, 14-membered ring

Chain of JAK2 JH1 (O60674 849-1124): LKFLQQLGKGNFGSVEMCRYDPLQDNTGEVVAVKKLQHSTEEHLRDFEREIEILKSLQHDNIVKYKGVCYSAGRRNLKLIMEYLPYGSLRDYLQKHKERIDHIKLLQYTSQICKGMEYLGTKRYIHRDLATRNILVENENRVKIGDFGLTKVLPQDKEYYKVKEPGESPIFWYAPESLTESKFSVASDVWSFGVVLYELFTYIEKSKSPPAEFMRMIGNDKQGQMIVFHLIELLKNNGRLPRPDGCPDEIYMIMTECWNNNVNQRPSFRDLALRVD
Chain of JAK3 JH1 (P52333 822-1111): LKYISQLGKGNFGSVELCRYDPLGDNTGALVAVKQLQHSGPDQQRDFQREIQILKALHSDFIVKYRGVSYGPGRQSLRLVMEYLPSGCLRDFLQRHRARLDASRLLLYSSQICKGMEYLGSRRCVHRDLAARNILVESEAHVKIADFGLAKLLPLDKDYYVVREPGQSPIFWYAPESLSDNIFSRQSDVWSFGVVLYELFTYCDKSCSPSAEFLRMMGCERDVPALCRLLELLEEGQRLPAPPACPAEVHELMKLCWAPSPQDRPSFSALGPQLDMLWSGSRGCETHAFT
Chain of JAK2 JH2 (O60674 545-809): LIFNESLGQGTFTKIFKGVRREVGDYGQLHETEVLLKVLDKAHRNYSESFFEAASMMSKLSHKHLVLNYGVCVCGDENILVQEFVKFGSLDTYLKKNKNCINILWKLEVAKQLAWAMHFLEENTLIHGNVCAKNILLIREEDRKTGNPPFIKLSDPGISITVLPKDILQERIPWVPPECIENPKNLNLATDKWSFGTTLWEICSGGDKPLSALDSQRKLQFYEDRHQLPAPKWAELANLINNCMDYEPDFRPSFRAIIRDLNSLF
Chain of TYK2 JH1 (P29597 897-1176): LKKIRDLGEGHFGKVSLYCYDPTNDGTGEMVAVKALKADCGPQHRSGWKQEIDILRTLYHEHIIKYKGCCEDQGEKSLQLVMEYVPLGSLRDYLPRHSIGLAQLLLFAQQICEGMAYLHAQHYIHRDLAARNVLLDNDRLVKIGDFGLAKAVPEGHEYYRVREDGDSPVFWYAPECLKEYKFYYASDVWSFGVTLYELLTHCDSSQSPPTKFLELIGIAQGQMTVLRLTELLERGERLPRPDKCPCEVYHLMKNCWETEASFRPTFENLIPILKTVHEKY
Chain of JAK1 JH1 (P23458 875-1153): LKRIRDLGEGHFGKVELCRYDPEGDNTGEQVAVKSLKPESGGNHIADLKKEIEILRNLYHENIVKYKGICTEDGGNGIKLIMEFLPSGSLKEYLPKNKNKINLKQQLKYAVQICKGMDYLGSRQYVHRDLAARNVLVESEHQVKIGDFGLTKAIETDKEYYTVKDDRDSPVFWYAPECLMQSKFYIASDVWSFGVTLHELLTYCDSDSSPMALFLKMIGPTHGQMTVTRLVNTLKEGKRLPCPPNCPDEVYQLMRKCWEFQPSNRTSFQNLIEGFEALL
Chain of JAK1 JH2 (P23458 583-855): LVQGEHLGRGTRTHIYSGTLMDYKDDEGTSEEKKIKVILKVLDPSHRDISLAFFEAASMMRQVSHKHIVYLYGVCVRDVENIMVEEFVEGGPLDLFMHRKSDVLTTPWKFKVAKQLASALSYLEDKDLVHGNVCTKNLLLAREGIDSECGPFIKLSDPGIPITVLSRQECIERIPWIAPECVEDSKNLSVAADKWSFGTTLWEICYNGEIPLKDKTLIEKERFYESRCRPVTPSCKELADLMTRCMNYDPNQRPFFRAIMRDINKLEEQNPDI
Chain of human TYK2 (JH2domain-pseudokinase) (P29597 556-888): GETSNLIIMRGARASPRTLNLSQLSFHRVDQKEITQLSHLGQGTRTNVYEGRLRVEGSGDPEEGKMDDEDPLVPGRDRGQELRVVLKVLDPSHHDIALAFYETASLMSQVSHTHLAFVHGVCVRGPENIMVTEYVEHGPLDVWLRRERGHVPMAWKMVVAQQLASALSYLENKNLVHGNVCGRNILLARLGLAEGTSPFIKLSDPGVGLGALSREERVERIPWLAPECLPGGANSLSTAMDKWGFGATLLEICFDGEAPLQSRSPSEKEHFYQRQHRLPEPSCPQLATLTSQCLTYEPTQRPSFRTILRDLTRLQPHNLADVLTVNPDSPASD

| Kd (JAK3 JH1) | Kd (JAK1 JH1) | Kd (JAK1 JH2) | Kd (JAK2 JH2) | Kd [2] | Kd (JAK2 JH1) | Kd (TYK2 JH1) | Compound | also measured |
| --- | --- | --- | --- | --- | --- | --- | --- | --- |
|  |  | 1 to 10 µM |  | < 0.01 µM |  | ≥ 30 µM | CNc1cc2nn3c(cnc13)C(=O)O[C@H](C)COCc1cc(c3nnn(C)c3c1)N2 [Compound 3, (7R,E)-3′,7-Dimethyl-1^8-(methylamino)-3^1H-5,8-dioxa-2-aza-1(6,3),3(4,6)-diimidazo[1,2-b]pyridazinacyclononaphan-9-one] | ring closure, isolated yield ([3]; from CNc1cc(Cl)nn2c(C(=O)O[C@H](C)COCc3cc(N)c4nnn(C)c4c3)cnc12, dioxane, 27.5 mM, 16.0 h): 33% |
| ≥ 30 µM | ≥ 30 µM | 0.01 to 1 µM | 10 to 30 µM | < 0.01 µM | ≥ 30 µM | ≥ 30 µM | CNc1cc2nc3c(cnn13)C(=O)N[C@H](C)COCc1cc(c3nn(C)nc3c1)N2 [Compound 34] |  |
| ≥ 30 µM | ≥ 30 µM | 10 to 30 µM | ≥ 30 µM | < 0.01 µM | ≥ 30 µM | ≥ 30 µM | CNc1cc2nc3c(cnn13)C(=O)N[C@H](C)COCc1cc(c3c(c1)nnn3C)N2 [Compound 37] |  |
|  |  |  |  | 0.01 to 1 µM |  |  | COc1nc2cn3c(c(C)nc13)C(=O)N[C@H](C)COCc1cc(c3nnn(C)c3c1)N2 [Compound 72] | ring closure, yield after HPLC ([4]; from COc1nc(Br)cn2c(C(=O)N[C@H](C)COCc3cc(N)c4nnn(C)c4c3)c(C)nc12, RuPhos Pd G3/Cs2CO3, 1,4-dioxane, 72.0 mM, 80.0 °C, 4.0 h): 21% |
|  |  |  |  | 0.01 to 1 µM |  |  | C[C@@H]1COCc2cc(c3nnn(C)c3c2)Nc2cn3c(cnc3c(N)n2)C(=O)N1 [Compound 73] | ring closure, yield after HPLC ([4]; from C[C@H](COCc1cc(N)c2nnn(C)c2c1)NC(=O)c1cnc2c(N)nc(Br)cn12, RuPhos Pd G3 (0.5 eq)/Cs2CO3, dioxane, 64.0 mM, 100.0 °C, 16.0 h): 4.4% |
|  |  | ≥ 30 µM |  | 1 to 10 µM |  | ≥ 30 µM | COc1nc2cn3c(cnc13)C(=O)N[C@H](C)COCc1cc(c3nnn(C)c3c1)N2 [Compound 79] | ring closure, yield after HPLC ([4]; from COc1nc(Br)cn2c(C(=O)N[C@H](C)COCc3cc(N)c4nnn(C)c4c3)cnc12, Pd2(dba)3/Xantphos/Cs2CO3, 1,4-dioxane, 61.0 mM, 80.0 °C): 14% |

More lines, now with the values behind:

| Compound | Kd (JAK3 JH1) | Kd (JAK1 JH1) | Kd (JAK1 JH2) | Kd (JAK2 JH2) | Kd [2] | Kd (JAK2 JH1) | Kd (TYK2 JH1) | also measured |
| --- | --- | --- | --- | --- | --- | --- | --- | --- |
| CNc1cc2nn3c(cnc13)C(=O)N[C@H](C)COCc1cc(c3c(c1)nnn3C)N2 [Compound 1] | ≥ 30 µM | ≥ 30 µM | 0.01 to 1 µM | 1 to 10 µM | < 0.01 µM | ≥ 30 µM | 1 to 10 µM | IC50 (IFNa, PBMCs, p-STAT3): < 0.05 µM; IC50 [1]: < 0.05 µM |
| CNc1cc2nn3c(cnc13)C(=O)N[C@H](CO)COCc1cc(c3nnn(C)c3c1)N2 [Compound 2] |  |  | 0.01 to 1 µM |  | < 0.01 µM |  | ≥ 30 µM | IC50 (IFNa, PBMCs, p-STAT3): ≥ 0.1 µM; IC50 [1]: < 0.05 µM |
| [2H]C1([2H])OC[C@@H](C)NC(=O)c2cnc3c(NC)cc(nn23)Nc2cc1cc1c2nnn1C [Compound 7, (7R,E)-3′,7-Dimethyl-1^8-(methylamino)-3^1H-5-oxa-2,8-diaza-1(6,3),3(4,6)-diimidazo[1,2-b]pyridazinacyclononaphan-9-one-4,4-d2] | 10 to 30 µM | ≥ 30 µM | 0.01 to 1 µM | 1 to 10 µM | < 0.01 µM | ≥ 30 µM | 1 to 10 µM |  |
| CNc1cc2nn3c(cnc13)C(=O)N[C@H](C)COCc1cc(c3c(c1)ncn3C)N2 [Compound 8, (7R,E)-3′,7-Dimethyl-1^8-(methylamino)-3^1H-5-oxa-2,8-diaza-1(6,3)-imidazo[1,2-b] pyridazina-3(7,5)-benzo[d]imidazolacyclononaphan-9-one] | 10 to 30 µM | ≥ 30 µM | 0.01 to 1 µM | 1 to 10 µM |  | ≥ 30 µM | 1 to 10 µM |  |
| CNc1cc2nc3c(cnn13)C(=O)N[C@H](C)COCc1cc(c3nnn(C)c3c1)N2 [Compound 33] | ≥ 30 µM | ≥ 30 µM | 1 to 10 µM | ≥ 30 µM | < 0.01 µM | ≥ 30 µM | ≥ 30 µM |  |
| Cc1nc2c(N)nc3cn2c1C(=O)N[C@H](C)COCc1cc(c2nnn(C)c2c1)N3 [Compound 74] |  |  |  |  | 0.01 to 1 µM |  |  | ring closure, yield after HPLC ([4]; from Cc1nc2c(N)nc(Br)cn2c1C(=O)N[C@H](C)COCc1cc(N)c2nnn(C)c2c1, Pd2(dba)3/Xantphos/Cs2CO3, dioxane, 100.0 °C, 16.0 h): 6.2% |
| CNc1nc2cn3c(c(C)nc13)C(=O)N[C@H](C)COCc1cc(c3nnn(C)c3c1)N2 [Compound 78] |  |  |  |  | 1 to 10 µM |  |  | ring closure, yield after HPLC ([4]; from CNc1nc(Br)cn2c(C(=O)N[C@H](C)COCc3cc(N)c4nnn(C)c4c3)c(C)nc12, RuPhos Pd G3/Cs2CO3, 1,4-dioxane, 64.0 mM, 80.0 °C): 11.3% |
| Cc1nc2cnc3cn2c1C(=O)N[C@H](C)COCc1cc(c2nnn(C)c2c1)N3 [Compound 81] |  |  | ≥ 30 µM |  | 1 to 10 µM |  | ≥ 30 µM | ring closure, yield after HPLC ([4]; from Cc1nc2cnc(Br)cn2c1C(=O)N[C@H](C)COCc1cc(N)c2nnn(C)c2c1, RuPhos Pd G3/Cs2CO3, dioxane, 80.0 °C): 20% |
| tert-butyl N-methyl-N-[(12R)-12-methyl-10-oxo-14-oxa-2,4,5,7,11,16-hexaazapentacyclo[13.6.2.2^(3,6.0^(5,9.0^(19,23]pentacosa-1(21),3,6,8,15,17,19,22,24-nonaen-24-yl]carbamate |  |  |  |  |  |  |  | ring closure, yield after HPLC ([4]; Pd2(dba)3/Xantphos/Cs2CO3, 1,4-dioxane, 50.0 mM, 80.0 °C): 60% |
| tert-butyl N-methyl-N-[(14R)-14-methyl-16-oxo-12-oxa-2,7,8,15,19,23,24-heptaazapentacyclo[15.5.2.1^(3,10.0^(5,9.0^(20,24]pentacosa-1(23),3(25),4,6,9,17,19,21-octaen-21-yl]carbamate |  |  |  |  |  |  |  | ring closure, isolated yield ([3]; 1,4-dioxane, 23.0 mM, 80.0 °C): 71% |
